# Several values for one entry are separate records, joined by “and”; a condition that tells them apart may be missing. Identical values can stand only once.
# Tested on: isolated Langendorff-perfused rat hearts
# Experiment: Langendorff-perfused rat hearts, haemodynamic parameters
# Design: key to LVSP, individual hearts / LVEDP, individual hearts: pressure in mmHg; Max (Figure 5c): unit not given here
# Details: for Max (Figure 5c): one column per heart; for LVSP representative trace, ON: during perfusion with compound
# Experimental: Next, we tested for the functional effects of F10 in isolated Langendorff-perfused rat hearts. Hearts were initially stabilized in modified Krebs-Henseleit (KH) solution for about 25–30 min and subsequently perfused with KH solution containing 20 μmol L^−1 F10 for 5 mins to reach a new steady state.
# Rat hearts were Langendorff-perfused as described previously. Briefly, Wistar rats (Rattus norvegicus, male, 200–250 g, 7 weeks old) were anesthetized by injection of 0.9 mL sodium pentobarbitone 20% (w/v). […] The aorta was cannulated and secured with sutures (Mersilk 3‐0; Ethicon, Somerville, NJ, USA). Hearts were perfused at a constant perfusion pressure of 70 ± 2 mmHg using a peristaltic pump (Gilson Minipuls 4, Middleton, WI, USA) and a feedback control system (STH Pump Controller; AD Instruments, Oxford, UK). […] A fluid‐filled balloon, attached to a pressure transducer, was inserted into the left ventricle and inflated to give an end‐diastolic pressure between 3 and 8 mmHg. Left ventricular pressure (LVP), perfusion pressure, coronary flow and arterial and venous oxygen tensions were recorded using a PowerLab recorder and LabChart 8.0 software (ADInstruments). Functional parameters were averaged for ∼80 cardiac cycles at 5 min intervals.
# [1] = 20 μmol L^−1 F10 or 1 μmol L^−1 Mavacamten
# [2] = Time 11 min, during perfusion with 20 μmol L^−1 F10 or 1 μmol L^-1 Mavacamten
# [3] = Time 12 min, during perfusion with 20 μmol L^−1 F10 or 1 μmol L^-1 Mavacamten
# [4] = Time 13 min, during perfusion with 20 μmol L^−1 F10 or 1 μmol L^-1 Mavacamten
# [5] = Time 14 min, during perfusion with 20 μmol L^−1 F10 or 1 μmol L^-1 Mavacamten
# [6] = Time 15 min, during perfusion with 20 μmol L^−1 F10 or 1 μmol L^-1 Mavacamten
smiles,measurement,setting,value
CCc1cc2c(=O)n(NC(=S)NC(C)C)cnc2s1 [F10],decrease of LVSP,20 μmol L^−1 F10,about 65%
same,time to LVSP decrease,20 μmol L^−1 F10,2 to 3 min
same,LVEDP,"20 μmol L^−1 F10, baseline 1.9 ± 0.2",22.0 ± 1.1 mmHg
same,Coronary flow,"20 μmol L^−1 F10, baseline 15.6 ± 1.7",16.7 ± 2.3 mL/min
same,LVSP (left ventricular systolic pressure),"20 μmol L^−1 F10, baseline 168.0 ± 8.5",58.3 ± 2.2 mmHg and ~60 mmHg
same,Heart rate,"20 μmol L^−1 F10, baseline 303 ± 8",300 ± 4 bpm
same,dP dt-1max,"20 μmol L^−1 F10, baseline 3978.8 ± 108.0",1329.0 ± 153.8 mmHg s-1
same,dP dt-1min,"20 μmol L^−1 F10, baseline -3352.4 ± 134.4",-1300.0 ± 104.2 mmHg s-1
same,effect on coronary perfusion / coronary flow,[1],"without, however, affecting"
same,effect on heart rate,[1],"without, however, affecting"
same,effect on left ventricular end-diastolic pressure (LVEDP),[1],slightly increased
same,Max (Figure 5c),Time 0 min,4538.86 and 3737.57 and 4104.74 and 3514.73
same,Max (Figure 5c),Time 1 min,4533.2 and 3831.26 and 4064.23 and 3491.94
same,Max (Figure 5c),Time 2 min,4496.16 and 3879.38 and 4046.5 and 3811.01
same,Max (Figure 5c),Time 3 min,4752.62 and 3481.82 and 4079.42 and 3811
same,Max (Figure 5c),Time 4 min,4748.26 and 3745.17 and 3942.68 and 3866.71
same,Max (Figure 5c),Time 5 min,4784.79 and 3724.91 and 3914.83 and 3735.04
same,Max (Figure 5c),Time 6 min,4906.21 and 3922.42 and 4049.03 and 3689.46
same,Max (Figure 5c),Time 7 min,4229.13 and 4155.39 and 4130.07 and 3504.61
same,Max (Figure 5c),Time 8 min,3838.64 and 3904.7 and 4175.65 and 3570.44
same,Max (Figure 5c),Time 9 min,4069.64 and 3864.18 and 4233.89 and 3747.7
same,Max (Figure 5c),Time 10 min,4016.14 and 3757.83 and 4254.14 and 3608.43
same,"LVEDP, individual hearts",[2],15.6 and 9.2 (2×) and 12.7
same,"LVSP, individual hearts",[2],111 and 115 and 127 and 112
same,Max (Figure 5c),Time 11 min,2272.52 and 2689.23 and 2643.65 and 2375.23
same,"LVEDP, individual hearts",[3],29.6 and 15 and 19.6 and 15.9
same,"LVSP, individual hearts",[3],61 and 72 and 67 and 69
same,Max (Figure 5c),Time 12 min,1178.7 and 1696.59 and 1306.63 and 1372.47
same,"LVEDP, individual hearts",[4],33.1 and 16.4 and 22.8 and 17.5
same,"LVSP, individual hearts",[4],53 and 61 and 54 and 64
same,Max (Figure 5c),Time 13 min,944.61 and 1258.52 and 1063.54 and 1212.94
same,"LVEDP, individual hearts",[5],33.5 and 16.7 and 22.2 and 17.6
same,"LVSP, individual hearts",[5],53 and 62 and 55 and 63
same,"LVEDP, individual hearts",[6],24.3 and 20.65 and 23.5 and 19.6
same,"LVSP, individual hearts",[6],54 and 60 and 59 and 62
same,Max (Figure 5c),Time 15 min,1778.6 and 1228.13 and 1081.26
same,"LVEDP, individual hearts","Time 16 min, after washout",10.1 and 9 and 13.9 and 11.2
same,"LVSP, individual hearts","Time 16 min, after washout",56 and 118 and 105 and 99
same,Max (Figure 5c),Time 16 min,3660.62 and 2787.98 and 2279.01 and 1886.51
same,"LVEDP, individual hearts","Time 17 min, after washout",4.9 and 3.7 and 8.8 and 5.7
same,"LVSP, individual hearts","Time 17 min, after washout",80 and 162 and 174 and 148
same,Max (Figure 5c),Time 17 min,4729.41 and 3935.08 and 3990.79 and 3096.92
same,"LVEDP, individual hearts","Time 18 min, after washout",3.9 and 2 and 7.3 (2×)
same,"LVSP, individual hearts","Time 18 min, after washout",157 and 184 and 161 and 128
same,Max (Figure 5c),Time 18 min,4833.67 and 4428.87 and 3509.67 and 2539.83
same,"LVEDP, individual hearts","Time 19 min, after washout",4.5 and 0 and 5.9 and 6.4
same,"LVSP, individual hearts","Time 19 min, after washout",189 and 183 and 170 and 127
same,Max (Figure 5c),Time 19 min,4740.03 and 4469.38 and 3319.75 and 2476.52
same,"LVEDP, individual hearts","Time 20 min, after washout",4.8 and 1.5 and 7.4 and 6.4
same,"LVSP, individual hearts","Time 20 min, after washout",198 and 188 and 151 and 124
same,Max (Figure 5c),Time 20 min,4601.11 and 4596 and 3177.95 and 2499.31
same,"LVEDP, individual hearts","Time 21 min, after washout",3.4 and 1.5 and 7.5 and 6
same,"LVSP, individual hearts","Time 21 min, after washout",199 and 191 and 151 and 124
same,Max (Figure 5c),Time 21 min,4625.81 and 4497.24 and 3228.59 and 2473.99
same,"LVEDP, individual hearts","Time 22 min, after washout",0.7 and 0.5 and 7.5 and 6.6
same,"LVSP, individual hearts","Time 22 min, after washout",200 and 181 and 145 and 127
same,Max (Figure 5c),Time 22 min,4517.25 and 4112.34 and 3099.45 and 2489.18
same,"LVEDP, individual hearts","Time 23 min, after washout",3.5 and 0.4 and 5.8 and 6.4
same,"LVSP, individual hearts","Time 23 min, after washout",202 and 174 and 144 and 129
same,Max (Figure 5c),Time 23 min,4435.96 and 3988.26 and 3074.13 and 2524.63
same,"LVEDP, individual hearts","Time 24 min, after washout",3.4 and 1.5 and 6.4 and 5.5
same,"LVSP, individual hearts","Time 24 min, after washout",196 and 173 and 146 and 133
same,Max (Figure 5c),Time 24 min,4141.16 and 3968 and 3132.37 and 2582.87
same,"LVEDP, individual hearts","Time 25 min, after washout",2.4 and 0.2 and 5.3 and 4.7
same,"LVSP, individual hearts","Time 25 min, after washout",195 and 173 and 151 and 139
same,Max (Figure 5c),Time 25 min,4228.11 and 3945.21 and 3241.25 and 2668.97
same,"LVSP representative trace, OFF","after washout, t 0 s",26.9301 mmHg
same,"LVSP representative trace, OFF","after washout, t 10 s",27.9144 mmHg
same,"LVSP representative trace, OFF","after washout, t 20 s",30.1929 mmHg
same,"LVSP representative trace, OFF","after washout, t 30 s",33.9204 mmHg
same,"LVSP representative trace, OFF","after washout, t 40 s",39.0616 mmHg
same,"LVSP representative trace, OFF","after washout, t 50 s",45.8972 mmHg
same,"LVSP representative trace, OFF","after washout, t 60 s",54.0831 mmHg
same,"LVSP representative trace, OFF","after washout, t 70 s",63.6019 mmHg
same,"LVSP representative trace, OFF","after washout, t 80 s",75.1964 mmHg
same,"LVSP representative trace, OFF","after washout, t 90 s",88.9731 mmHg
same,"LVSP representative trace, OFF","after washout, t 100 s",99.8102 mmHg
same,"LVSP representative trace, OFF","after washout, t 110 s",110.826 mmHg
same,"LVSP representative trace, OFF","after washout, t 120 s",122.733 mmHg
same,"LVSP representative trace, OFF","after washout, t 130 s",132.379 mmHg
same,"LVSP representative trace, OFF","after washout, t 140 s",138.465 mmHg
same,"LVSP representative trace, OFF","after washout, t 150 s",148.942 mmHg
same,"LVSP representative trace, OFF","after washout, t 160 s",154.992 mmHg
same,"LVSP representative trace, OFF","after washout, t 170 s",158.488 mmHg
same,"LVSP representative trace, OFF","after washout, t 180 s",163.133 mmHg
same,"LVSP representative trace, OFF","after washout, t 190 s",167.458 mmHg
same,"LVSP representative trace, OFF","after washout, t 200 s",171.598 mmHg
same,"LVSP representative trace, OFF","after washout, t 210 s",175.866 mmHg
same,"LVSP representative trace, OFF","after washout, t 220 s",181.264 mmHg
same,"LVSP representative trace, OFF","after washout, t 230 s",184.759 mmHg
same,"LVSP representative trace, OFF","after washout, t 240 s",185.799 mmHg
same,"LVSP representative trace, ON",t 0 s,184.006 mmHg
same,"LVSP representative trace, ON",t 10 s,181.455 mmHg
same,"LVSP representative trace, ON",t 20 s,172.654 mmHg
same,"LVSP representative trace, ON",t 30 s,155.565 mmHg
same,"LVSP representative trace, ON",t 40 s,123.466 mmHg
same,"LVSP representative trace, ON",t 50 s,94.0285 mmHg
same,"LVSP representative trace, ON",t 60 s,73.0453 mmHg
same,"LVSP representative trace, ON",t 70 s,48.8284 mmHg
same,"LVSP representative trace, ON",t 80 s,40.271 mmHg
same,"LVSP representative trace, ON",t 90 s,34.4969 mmHg
same,"LVSP representative trace, ON",t 100 s,31.9133 mmHg
same,"LVSP representative trace, ON",t 110 s,30.398 mmHg
same,"LVSP representative trace, ON",t 120 s,28.7612 mmHg
same,"LVSP representative trace, ON",t 130 s,28.2624 mmHg
same,"LVSP representative trace, ON",t 140 s,27.1705 mmHg
same,Coronary flow,individual hearts,18.7 mL/min and 18.0 mL/min and 20.0 mL/min and 10.0 mL/min
same,Heart rate,individual hearts,295.0 bpm and 311.0 bpm and 292.0 bpm and 302.0 bpm
same,LVEDP,individual hearts,30.3 mmHg and 17.9 mmHg and 22.8 mmHg and 18.2 mmHg
same,LVSP,individual hearts,53.3 mmHg and 61.0 mmHg and 56.0 mmHg and 63.0 mmHg
same,dP dt-1max,individual hearts,1778.6 mmHg s-1 and 1228.1 mmHg s-1 (2×) and 1081.3 mmHg s-1
same,dP dt-1min,individual hearts,-1606.8 mmHg s-1 and -1233.2 mmHg s-1 and -1142.0 mmHg s-1 and -1218.0 mmHg s-1
same,reversibility of the effect on washout,perfusion with KH solution in the absence of F10,completely reversible
